Laboratory results from patent US20130004579A1, “Use of Plant Lectins to Target Leukocytes” (priority 2011, published 2013).

Tests used:
[1] = test system: C57BL/6 splenocytes, dendritic cells (CD11c+); assay: Lectin-conjugated NR-PS particle uptake by splenocyte populations (Example 8): dendritic cells; format: cell-based, mouse; details: lectin 100 μg/ml; live cells
Experimental: (§1) Splenocytes were isolated from C57BL/6 mice and cultured as described above, at a density of 2×10^6 cells/ml in a 96 well U-bottomed plate, in 100 μl of complete RPMI 1640 medium. Cells were incubated for 5, 10 or 30 minutes at 37° C. with NR-PS particles (5, 50 or 100 μg/ml) or NR-PS particles (5, 50 or 100 μg/ml) conjugated with biotinylated UEA-1 (100 μg/ml), biotinylated SBA (100 μg/ml), biotinylated PHA-E ([…]), biotinylated PHA-L (100 μg/ml) or biotinylated DSL (100 μg/ml). Cells were transferred to FACS tubes, washed in FACS buffer, centrifuged at 1200 rpm for 5 minutes (×3) and resuspended in 100 μl FACS buffer. Cells were then incubated with Fc Block™ (2.5 μg/ml; BD Pharmingen, San Diego, Calif.) for 10 minutes. Determination of cell types was achieved by labelling characteristic cell surface markers with fluorescently-labelled antibodies—T cells were determined as being CD3^+, dendritic cells CD11c^+, macrophages F4/80^+, granulocytes Gr1^+ and B cells CD19^+. Cells were incubated on ice for 30 minutes in the dark and then washed in FACS buffer and centrifuged at 1200 rpm for 5 minutes (×3). After washing, cells were resuspended in 200 μl of FACS buffer.
(§2) A CyAn™ ADP flow cytometer (Beckman Coulter, Inc., Miami, Fla.), Summit™ software (Dako North America, Inc., Carpinteria, Calif.) and FlowJo™ software (Treestar, Inc., Ashland, Oreg.) were used to analyze the uptake of particles by various cells populations. Live cells were gated on by their FSC and SSC properties in order to roughly estimate the degree of cell death. Particle uptake was calculated for each cell subtype from the data in FIGS. 11A-11D, showing the percentages of both cell marker- and particle-positive cells within the live cell population. Unstimulated cells were used as controls.

[2] = test system: C57BL/6 BMDCs; assay: Flow cytometry uptake of lectin-conjugated NR-PS particles by live BMDCs (Example 6); format: cell-based, mouse; details: 30 minute incubation; lectin 100 μg/ml
Experimental: (§3) C57BL/6 BMDCs and iBMMs were isolated and cultured as described above at a density of 1×10^6 cells/ml in a 96 well U-bottomed plate in 100 μl complete RPMI 1640 medium with 10 ng/ml GM-CSF. Cells were stimulated for 10 or 30 minutes at 37° C. with NR-PS particles (5, 50 or 100 μg/ml) or NR-PS particles (5, 50 or 100 μg/ml) conjugated with biotinylated UEA-1 (100 μg/ml), biotinylated SBA (100 μg/ml), biotinylated PHA-E (100 μg/ml), biotinylated PHA-L (100 μg/ml) or biotinylated DSL (100 μg/ml). Cells were then scraped into FACS tubes, washed in FACS buffer, centrifuged at 1200 rpm for 5 minutes (×3) and resuspended in 200 μl of FACS buffer.
(§4) A FACSCanto™ II flow cytometer (BD Biosciences, San Jose, Calif.), FACSDiva™ software (BD Biosciences, San Jose, Calif.) and FlowJo™ software (Treestar, Inc., Ashland, Oreg.) were used to analyze the uptake of particles by various cell populations. Live cells were gated on by their FSC and SSC properties in order to estimate the degree of cell death. Particle uptake was quantified by determining the percentage of live cells taking up particles. Unstimulated cells were used as controls.

[3] = test system: C57BL/6 splenocytes, macrophages (F4/80+); assay: Lectin-conjugated NR-PS particle uptake by splenocyte populations (Example 8): macrophages; format: cell-based, mouse; details: lectin 100 μg/ml; live cells
Experimental: as §1, §2

[4] = test system: C57BL/6 splenocytes, T cells (CD3+); assay: Lectin-conjugated NR-PS particle uptake by splenocyte populations (Example 8): T cells; format: cell-based, mouse; details: lectin 100 μg/ml; live cells
Experimental: as §1, §2

[5] = test system: C57BL/6 splenocytes, B cells (CD19+); assay: Lectin-conjugated NR-PS particle uptake by splenocyte populations (Example 8): B cells; format: cell-based, mouse; details: lectin 100 μg/ml; live cells
Experimental: as §1, §2

[6] = test system: Bone marrow-derived macrophages (iBMMs); assay: Flow cytometry uptake of lectin-conjugated NR-PS particles by live iBMMs (Example 6); format: cell-based; details: 10 minute incubation; lectin 100 μg/ml
Experimental: as §3, §4

[7] = test system: C57BL/6 splenocytes, granulocytes (Gr1+); assay: Lectin-conjugated NR-PS particle uptake by splenocyte populations (Example 8): granulocytes; format: cell-based, mouse; details: lectin 100 μg/ml; live cells
Experimental: as §1, §2

[8] = test system: IL-1α production by bone marrow-derived dendritic cells (BMDCs); assay: IL-1α ELISA on supernatants of BMDCs incubated with particles; format: cell-based, mouse; details: C57BL/6 BMDCs; LPS 1 ng/ml; serial dilutions SC-PS 31.25 μg/ml to 1 mg/ml with lectin 1.56 to 50 μg/ml; vs unconjugated SC-PS
Experimental: (§5) BMDCs were isolated and cultured as described in Example 2 at a density of 6.25×10^5 cells/ml in 96 well U-bottomed microplates. Cells were stimulated with a Toll-like receptor (TLR) ligand (LPS or Pam2CSK4) for 6 hours. Cells were then incubated with either medium, alum/SC-PS particles, alum/SC-PS particles conjugated with UEA-1, alum/SC-PS particles conjugated with UEA-1 mimetic or with UEA-1 alone for 24 hours. After incubation, supernatants from BMDCs were collected and cytokine concentrations measured by ELISA. Antibody pairs specific for each cytokine were used for immunoassaying. The following cytokines were measured by immunoassay: IL-1α, IL-1β.
(§6) Capture antibodies were obtained from BD Pharmingen (San Diego, Calif.), BioLegend (San Diego, Calif.) and R&D Systems, Inc. (Minneapolis, Minn.) and prepared according to the manufacturer's specifications (see Table 2) and a volume of 40 μl/well added to high-binding 96 well ELISA plates. Plates were then incubated for 2 hours at 37° C. or overnight at 4° C. After incubation, plates were washed in PBS-T (×3) and tapped dry. Plates were then blocked with the appropriate blocking solution (see Table 2) and incubated for 2 hours at 37° C. After incubation plates were washed in PBS-T (×3) and tapped dry. Supernatants were transferred from cell culture plates to fresh 96 well plates. All supernatants were stored at −20° C. when not in use. Cell supernatants were applied to plates at the indicated dilutions (see Table 2). A blank triplicate was left on each plate containing the diluent as a blank. Standards were prepared at the starting concentration in the recommended diluent as specified by the manufacturer and transferred to a 96 well plate and serial dilutions (1:2) performed (see Table 2). All standards and samples were applied to plates at 40 μl/well total volume for incubation overnight at 4° C. After incubation plates were washed with PBS-T (×5) and tapped dry. […] Plates were then stopped by the addition of 20 μl/well of 1M H2SO4 and read. […]

[9] = test system: IL-1β production by bone marrow-derived dendritic cells (BMDCs); assay: IL-1β ELISA on supernatants of BMDCs incubated with particles; format: cell-based, mouse; details: C57BL/6 BMDCs; LPS 1 ng/ml; serial dilutions SC-PS 31.25 μg/ml to 1 mg/ml with lectin 1.56 to 50 μg/ml; vs unconjugated SC-PS
Experimental: as §5, §6

Molecule: NR-PS particles conjugated with biotinylated PHA-L: Nile Red streptavidin-coated polystyrene particles conjugated with biotinylated Phaseolus vulgaris leukoagglutinin
- percentage of dendritic cells found to have taken up particles [1]: 79.0%
- percentage of live BMDCs found to have taken up particles [2]: 89.6%
- percentage of macrophages found to have taken up particles [3]: 89.9%
- percentage of T cells found to have taken up particles [4]: 62.4%
- percentage of B cells found to have taken up particles [5]: 80.5%
- percentage of live iBMMs found to have taken up particles [6]: 79.6%
- percentage of granulocytes found to have taken up particles [7]: 80.7%

Molecule: NR-PS particles conjugated with biotinylated SBA: Nile Red streptavidin-coated polystyrene particles conjugated with biotinylated soybean agglutinin
- percentage of dendritic cells found to have taken up particles [1]: 56.3%
- percentage of live BMDCs found to have taken up particles [2]: 83.2%
- percentage of macrophages found to have taken up particles [3]: 84.8%
- percentage of T cells found to have taken up particles [4]: 6.4%
- percentage of B cells found to have taken up particles [5]: 70.8%
- percentage of live iBMMs found to have taken up particles [6]: 93.4%
- percentage of granulocytes found to have taken up particles [7]: 65.6%

Molecule: NR-PS particles conjugated with biotinylated PHA-E: Nile Red streptavidin-coated polystyrene particles conjugated with biotinylated Phaseolus vulgaris erthyroagglutinin
- percentage of dendritic cells found to have taken up particles [1]: 67.7%
- percentage of live BMDCs found to have taken up particles [2]: 89.7%
- percentage of macrophages found to have taken up particles [3]: 79.4%
- percentage of T cells found to have taken up particles [4]: 18.1%
- percentage of B cells found to have taken up particles [5]: 45.5%
- percentage of live iBMMs found to have taken up particles [6]: 91.0%
- percentage of granulocytes found to have taken up particles [7]: 74.0%

B1: PNA: SC-PS particles conjugated with biotinylated peanut agglutinin (conjugate, UniProt P02872 24-273, looked up)
Galactose-binding lectin: AETVSFNFNSFSEGNPAINFQGDVTVLSNGNIQLTNLNKVNSVGRVLYAMPVRIWSSATGNVASFLTSFSFEMKDIKDYDPADGIIFFIAPEDTQIPAGSIGGGTLGVSDTKGAGHFVGVEFDTYSNSEYNDPPTDHVGIDVNSVDSVKTVPWNSVSGAVVKVTVIYDSSTKTLSVAVTNDNGDITTIAQVVDLKAKLPERVKFGFSASGSLGGRQIHLIRSWSFTSTLITTTRRSIDNNEKKIMNMASA
modifications: biotinylated, on streptavidin polystyrene particles
notes: SC-PS particles conjugated with biotinylated peanut agglutinin
- TLR-4 agonist-primed IL-1α production [8]: increased IL-1α production across all five of the serial dilutions
- TLR-4 agonist-primed IL-1β production [9]: increased
